Laboratory results as given in ChEMBL document CHEMBL2057175, “New structure-activity relationships of A- and D-ring modified steroidal aromatase inhibitors: design, synthesis, and biochemical evaluation” (J Med Chem, 2012).

Columns and labels:
Aromatase [1] = molecular target: T1, Aromatase (Homo sapiens, UniProt P11511); settings: 0.25 h, read-out: INH
T1 sequence (P11511 whole entry): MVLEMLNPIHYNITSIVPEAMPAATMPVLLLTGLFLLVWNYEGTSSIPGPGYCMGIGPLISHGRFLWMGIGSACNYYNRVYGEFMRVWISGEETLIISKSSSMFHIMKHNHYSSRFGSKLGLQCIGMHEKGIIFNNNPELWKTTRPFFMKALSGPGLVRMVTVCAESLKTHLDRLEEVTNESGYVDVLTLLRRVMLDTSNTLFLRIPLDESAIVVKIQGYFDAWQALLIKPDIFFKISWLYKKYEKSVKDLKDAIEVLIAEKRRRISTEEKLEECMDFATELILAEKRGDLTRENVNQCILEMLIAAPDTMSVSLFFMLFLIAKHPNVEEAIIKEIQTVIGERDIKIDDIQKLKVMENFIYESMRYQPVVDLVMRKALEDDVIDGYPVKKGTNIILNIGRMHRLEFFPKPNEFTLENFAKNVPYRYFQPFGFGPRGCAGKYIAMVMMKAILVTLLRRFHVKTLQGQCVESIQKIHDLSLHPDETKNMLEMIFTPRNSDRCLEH
Description: Inhibition of aromatase in human placental microsomes using [1beta-3H]androstenedione as substrate at 2 uM after 15 mins by liquid scintillation counting

Aromatase [2] = molecular target: T1, Aromatase; assay: Competitive inhibition of aromatase in human microsomes using [1beta-3H]androstenedione as substrate after 5 mins by Lineweaver-Burk plot analysis; design: species or system Microsome
Aromatase [3] = molecular target: T1, Aromatase; assay: Inhibition of aromatase in human microsomes using [1beta-3H]androstenedione as substrate after 5 mins by Dixon plot analysis; design: species or system Microsome; settings: read-out: Ki(app)
Aromatase [4] = molecular target: T1, Aromatase; assay: Inhibition of aromatase in human placental microsomes using [1beta-3H]androstenedione as substrate after 15 mins by liquid scintillation counting; design: species or system Placenta

SMILES: C[C@]12CC[C@H](O)C=C1CC[C@@H]1[C@@H]2CC[C@]2(C)C(=O)CC[C@@H]12
- inhibition at 2 µM (Aromatase [1]): 93.1%
- inhibition (INH) (Aromatase [2]): Active

SMILES: C[C@]12CCC=C[C@@H]1CC[C@@H]1[C@@H]2CC[C@]2(C)C(=O)CC[C@@H]12
- Ki (Aromatase [3]): 50 nM
- inhibition (INH) (Aromatase [2]): Active

SMILES: C[C@]12CC[C@H]3O[C@H]3[C@@H]1CC[C@@H]1[C@@H]2CC[C@]2(C)C(=O)CC[C@@H]12
- inhibition (INH) (Aromatase [2]): Active

SMILES: C[C@]12CCCC=C1CC[C@@H]1[C@@H]2CC[C@]2(C)C(=O)CC[C@@H]12
- inhibition at 2 µM (Aromatase [1]): 97.8%

SMILES: C[C@]12CC[C@@H](O)C=C1CC[C@@H]1[C@@H]2CC[C@]2(C)C(=O)CC[C@@H]12
- inhibition at 2 µM (Aromatase [1]): 60.8%

SMILES: CC(=O)O[C@H]1CC[C@H]2[C@@H]3CCC4=C[C@@H](O)CC[C@]4(C)[C@H]3CC[C@]12C
- inhibition at 2 µM (Aromatase [1]): 4.6%

SMILES: C[C@]12CC[C@H]3[C@@H](CC[C@@]45O[C@@H]4CCC[C@]35C)[C@@H]1CCC2=O
- Ki (Aromatase [3]): 86 nM
- inhibition at 2 µM (Aromatase [1]): 84.6%
- inhibition (INH) (Aromatase [2]): Active
- IC50 (Aromatase [4]): 970 nM

SMILES: C[C@]12CC=CC[C@@H]1CC[C@@H]1[C@@H]2CC[C@]2(C)C(=O)CC[C@@H]12
- Ki (Aromatase [3]): 9500 nM
- inhibition at 2 µM (Aromatase [1]): 72%
- inhibition (INH) (Aromatase [2]): Active
- IC50 (Aromatase [4]): 1730 nM

SMILES: C[C@]12C[C@H]3O[C@H]3C[C@@H]1CC[C@@H]1[C@@H]2CC[C@]2(C)C(=O)CC[C@@H]12
- inhibition at 2 µM (Aromatase [1]): 70.7%
- IC50 (Aromatase [4]): 1150 nM

SMILES: C[C@]12C=CCC[C@@H]1CC[C@@H]1[C@@H]2CC[C@]2(C)C(=O)CC[C@@H]12
- inhibition at 2 µM (Aromatase [1]): 56%

SMILES: C[C@]12[C@@H](CC[C@@H]3[C@@H]1CC[C@]1(C)C(=O)CC[C@@H]31)CC[C@@H]1O[C@@H]12
- inhibition at 2 µM (Aromatase [1]): 40%

SMILES: CC(=O)OC1=CCC[C@@]2(C)[C@H]1CC[C@@H]1[C@@H]2CC[C@]2(C)C(=O)CC[C@@H]12
- inhibition at 2 µM (Aromatase [1]): 33.9%

SMILES: CC(=O)Oc1ccccc1C(=O)OC1=C2CC[C@@H]3[C@H](CC[C@]4(C)C(=O)CC[C@@H]34)[C@@]2(C)CCC1=O
- inhibition at 2 µM (Aromatase [1]): 68.7%

SMILES: C[C@]12CCC=C[C@@H]1CC[C@@H]1[C@@H]2CC[C@]2(C)C(=S)CC[C@@H]12
- inhibition at 2 µM (Aromatase [1]): 41.5%
